According to patent publication US20030166922A1, “Novel cephalosporin compounds and process for preparing the same” (priority 2000, published 2003):
Converted amounts (≈) assume the structure as drawn. Where two headings read alike, the source gives them in different places.

Key:
Test in all cases: Minimum Inhibitory Concentration (MIC), agar dilution, standard strains
S. aureus K311 = assay type: cell-based, Staphylococcus aureus; settings: Table 2; Mueller-Hinton agar, 37° C., 20 hours
Description: (§1) Minimum Inhibitory Concentration (MIC)
(§2) The effectiveness of the compound according to the present invention was determined by obtaining Minimum Inhibitory Concentration (MIC) of the compounds prepared by the above Examples (I-1 to I-33) and vancomycin, which is the known compound having a potent activity against gram-positive strains, as the control drug against the standard strains. Specifically, Minimum Inhibitory Concentration was obtained by diluting the test material with a double dilution method, dispersing them in Mueller-Hinton agar medium, inoculating each of the test strain having 10^7 cfu (colny forming unit) in an amount of 2:1 to the medium and then incubating them at 37° C. for 20 hours.

S. aureus 241 = assay type: cell-based, Staphylococcus aureus; settings: Staphylococcus aureus, 241, 20 h, read-out: Minimum Inhibitory Concentration (MIC), S. aureus 241
Description: as §1, §2

S. aureus 77 = assay type: cell-based, Staphylococcus aureus; settings: for MIC: read-out: Minimum Inhibitory Concentration (MIC), S. aureus 77
Description: as §1, §2

E. faecalis L239 = assay type: cell-based; settings: Enterococcus faecalis, L239, 20 h, read-out: Minimum Inhibitory Concentration (MIC), E. faecalis L239
Description: as §1, §2

[1] = system: Staphylococcus aureus giorgio; assay type: cell-based; settings: for Minimum Inhibitory Concentration (MIC), S. aureus giorgio: Table 2, Mueller-Hinton agar, 37° C., 20 hours
Description: as §1, §2

S. epidermidis R005 = assay type: cell-based; settings: for MIC: Staphylococcus epidermidis, read-out: Minimum Inhibitory Concentration (MIC), S. epidermidis R005
Description: as §1, §2

E. faecalis EFS004 = assay type: cell-based; settings: Table 2; Mueller-Hinton agar, 37° C., 20 hours
Description: as §1, §2

[2] = Table 2, Mueller-Hinton agar, 37° C., 20 hours
[3] = Staphylococcus aureus, 77, Table 2, Mueller-Hinton agar, 37° C., 20 hours
[4] = R005, Table 2, Mueller-Hinton agar, 37° C., 20 hours

Minimum Inhibitory Concentration (MIC), S. aureus K311 (S. aureus K311) | Minimum Inhibitory Concentration (MIC), S. aureus 77 (S. aureus 77; [2]) | Minimum Inhibitory Concentration (MIC), S. aureus giorgio [1] | Minimum Inhibitory Concentration (MIC), S. epidermidis R005 (S. epidermidis R005; [2]) | Minimum Inhibitory Concentration (MIC), E. faecalis EFS004 (E. faecalis EFS004) | MIC (S. aureus 77; [3]) [µg/mL] | MIC (S. epidermidis R005; [4]) [µg/mL] | SMILES | MIC (S. aureus 241) [µg/mL] | MIC (S. aureus 77; Staphylococcus aureus, 77, 20 h) [µg/mL] | MIC (E. faecalis L239) [µg/mL] | MIC ([1]; Staphylococcus aureus, 20 h, read-out: Minimum Inhibitory Concentration (MIC), Staphylococcus aureus giorgio) [µg/mL] | MIC (S. epidermidis R005; R005, 20 h) [µg/mL]
0.5 :g/ml | – | 0.016 :g/ml | – | 0.5 :g/ml | 0.25 (≈ 0.412 µM) | 0.25 (≈ 0.412 µM) | Nc1cc(SCSC2=C(C(=O)O)N3C(=O)[C@@H](NC(=O)CSc4cc(Cl)nc(Cl)c4)[C@H]3SC2)nc(N)n1 [Example I-24, (6R,7R)-3-({[(2,6-diamino-4-pyrimidinyl)sulfanyl]methyl}sulfanyl)-7-({2-[(2,6-dichloro-4-pyridinyl)sulfanyl]acetyl}amino)-8-oxo-5-thia-1-azabicyclo[4.2.0]oct-2-ene-2-carboxylic acid] | – | – | – | – | –
0.5 :g/ml | – | 0.016 :g/ml | – | 0.5 :g/ml | 0.25 (≈ 0.412 µM) | 0.25 (≈ 0.412 µM) | Nc1cc(N)nc(SCSC2=C(C(=O)O)N3C(=O)[C@@H](NC(=O)CSc4cc(Cl)nc(Cl)c4)[C@H]3SC2)n1 [Example I-25, (6R,7R)-3-({[(4,6-diamino-2-pyrimidinyl)sulfanyl]methyl}sulfanyl)-7-({2-[(2,6-dichloro-4-pyridinyl)sulfanyl]acetyl}amino)-8-oxo-5-thia-1-azabicyclo[4.2.0]oct-2-ene-2-carboxylic acid] | – | – | – | – | –

Further lines, the compound ahead of its results:

SMILES | Minimum Inhibitory Concentration (MIC), S. aureus K311 (S. aureus K311) | Minimum Inhibitory Concentration (MIC), S. aureus 77 (S. aureus 77; [2]) | Minimum Inhibitory Concentration (MIC), S. aureus giorgio [1] | Minimum Inhibitory Concentration (MIC), S. epidermidis R005 (S. epidermidis R005; [2]) | Minimum Inhibitory Concentration (MIC), E. faecalis EFS004 (E. faecalis EFS004) | MIC (S. aureus 77; [3]) [µg/mL] | MIC (S. epidermidis R005; [4]) [µg/mL] | MIC (S. aureus 241) [µg/mL] | MIC (S. aureus 77; Staphylococcus aureus, 77, 20 h) [µg/mL] | MIC (E. faecalis L239) [µg/mL] | MIC ([1]; Staphylococcus aureus, 20 h, read-out: Minimum Inhibitory Concentration (MIC), Staphylococcus aureus giorgio) [µg/mL] | MIC (S. epidermidis R005; R005, 20 h) [µg/mL]
CN[C@H](CC(C)C)C(=O)N[C@H]1C(=O)N[C@@H](CC(N)=O)C(=O)N[C@H]2C(=O)N[C@H]3C(=O)N[C@H](C(=O)N[C@H](C(=O)O)c4cc(O)cc(O)c4-c4cc3ccc4O)[C@H](O)c3ccc(c(Cl)c3)Oc3cc2cc(c3O[C@@H]2O[C@H](CO)[C@@H](O)[C@H](O)[C@H]2O[C@H]2C[C@](C)(N)[C@H](O)[C@H](C)O2)Oc2ccc(cc2Cl)[C@H]1O [Vancomycin, vancomycin, reference compound] | 2 :g/ml | 1 :g/ml | 1 :g/ml | 1 :g/ml | 2 :g/ml | – | – | 2 (≈ 1.38 µM) | 1 (≈ 0.69 µM) | 2 (≈ 1.38 µM) | 1 (≈ 0.69 µM) | 1 (≈ 0.69 µM)
CCSc1nc(C)cc(SCSC2=C(C(=O)O)N3C(=O)[C@@H](NC(=O)CSc4cc(Cl)nc(Cl)c4)[C@H]3SC2)n1 [Example I-29, (6R,7R)-7-({2-[(2,6-dichloro-4-pyridinyl)sulfanyl]acetyl}amino)-3-[({[2-(ethylsulfanyl)-6-methyl-4-pyrimidinyl]sulfanyl)methyl]sulfanyl}-8-oxo-5-thia-1-azabicy-clo[4.2.0]oct-2-ene-2-carboxylic acid] | 2 :g/ml | 0.5 :g/ml | 0.031 :g/ml | 1 :g/ml | 0.25 :g/ml | – | – | – | – | – | – | –
Cn1c(N)n[n+]2c(SCSC3=C(C(=O)O)N4C(=O)[C@@H](NC(=O)CSc5cc(Cl)nc(Cl)c5)[C@H]4SC3)nc(N)cc12 [Example I-31, 2,7-diamino-5-[({[(6R,7R)-2-carboxy-7-({2-[(2,6-dichloro-4-pyridinyl)sulf-anyl]acetyl}amino)-8-oxo-5-thia-1-azabicyclo[4.2.0]oct-2-en-3-yl]sulfanyl}methyl)sulfan-yl]-1-methyl-1H-[1,2,4]triazolo[1,5-c]pyrimidin-4-ium] | 0.5 :g/ml | 0.25 :g/ml | 0.031 :g/ml | 0.25 :g/ml | 0.5 :g/ml | – | – | – | – | – | – | –
